Assay results from EPA's ToxValDB 9.5 (doi:10.2903/j.efsa.2009.336r).

Experiments:
Apis mellifera = conditions: acute; duration: 48 hours; oral; unspecified; mortality
Avena sativa = conditions: not reported; no effects
Bibionidae = conditions: chronic/long-term; duration: 28 days; other
Canidae = conditions: chronic; duration: 52 weeks; oral; Dog Other; organ weight
Colinus virginianus = conditions: acute, oral, mortality
Daphnia magna = conditions: chronic/long-term; duration: 21 days; reproduction
Lepomis macrochirus = conditions: acute; duration: 96 hours; mortality
Oncorhynchus mykiss = conditions: chronic/long-term; duration: 95 days
Tagia sp. = conditions: acute; duration: 14 days; mortality

In the case of `CC(COc1ccc(Oc2ccccc2)cc1)Oc1ccccn1` (centres undefined) [Pyriproxyfen], the LD50 (Anas platyrhynchos; acute, oral, unspecified, mortality) is reported as > 1910 mg/kg, the NOEC (Anas platyrhynchos; reproductive) is reported as 70.2 mg/kg-day and the LD50 (Apis mellifera) is reported as > 74 µg/piece. For the same compound, the LEL (Avena sativa) was 8000 g/ha, the NOEC (Bibionidae) was 0.01 mg/L and the NOAEL (Canidae) was 10 mg/kg-day. The LC50 (Colinus virginianus; diet) was > 863 mg/kg-day, the LD50 (Colinus virginianus) was > 1910 mg/kg and the NOEC (Daphnia magna) was 1.5e-05 mg/L. The LC50 (Lepomis macrochirus) was > 0.27 mg/L, the NOEC (Oncorhynchus mykiss) was 0.0043 mg/L and the LD50 (Rattus norvegicus; acute, oral, mortality) was > 5000 mg/kg. For the same compound, the NOAEL (Rattus norvegicus; reproduction developmental, organ weight) was 13.3 mg/kg-day and the LC50 (Tagia sp.) was > 1000 mg/kg.
